Data as given in publication PMC5218480 (PLoS ONE, 2017).

Test system: MV-4-11 cells
Assay: Gene expression microarray analysis (Affymetrix PrimeView) and GSEA
Format: cell-based, human
Set-up: RFU PODN (11730768_x_at) / Fold change /veh PODN (11730768_x_at) / RFU LINC00158 (11744669_a_at) / Fold change /veh LINC00158 (11744669_a_at) / RFU DUSP10 (11751237_a_at) / Fold change /veh DUSP10 (11751237_a_at) / RFU ID3 (11757404_x_at) / Fold change /veh ID3 (11757404_x_at) / RFU PLEKHG5 (11737974_s_at) / Fold change /veh PLEKHG5 (11737974_s_at) / RFU LRRC4B (11730491_at) / Fold change /veh LRRC4B (11730491_at) / RFU GIMAP4 (11747438_a_at) / Fold change /veh GIMAP4 (11747438_a_at) / RFU KRT8 (11758183_x_at) / Fold change /veh KRT8 (11758183_x_at) / RFU CNN1 (11734310_a_at) / Fold change /veh CNN1 (11734310_a_at) / RFU VPS37D (11726825_at) / Fold change /veh VPS37D (11726825_at) / RFU C10orf10 (11716522_x_at) / Fold change /veh C10orf10 (11716522_x_at) / RFU KIR2DL2 /// KIR2DL4 /// KIR2DL5A /// KIR2DL5B /// KIR2DS1 /// KIR2DS2 /// KIR2DS3 /// KIR2DS4 /// KIR3DL3 /// KIR3DL3 /// KIR3DS1 (11738374_at) / Fold change /veh KIR2DL2 /// KIR2DL4 /// KIR2DL5A /// KIR2DL5B /// KIR2DS1 /// KIR2DS2 /// KIR2DS3 /// KIR2DS4 /// KIR3DL3 /// KIR3DL3 /// KIR3DS1 (11738374_at) / RFU C1QL1 (11718748_at) / Fold change /veh C1QL1 (11718748_at) / RFU TMPRSS4 (11747572_a_at) / Fold change /veh TMPRSS4 (11747572_a_at) / RFU HAMP (11756126_x_at) / Fold change /veh HAMP (11756126_x_at) / RFU RNFT2 (11725882_a_at) / Fold change /veh RNFT2 (11725882_a_at) / RFU NR4A2 (11747474_a_at) / Fold change /veh NR4A2 (11747474_a_at) / RFU ABCC12 (11746883_a_at) / Fold change /veh ABCC12 (11746883_a_at) / RFU TMEM136 (11760407_x_at) / Fold change /veh TMEM136 (11760407_x_at) / RFU CLDN22 /// WWC2 (11732394_at) / Fold change /veh CLDN22 /// WWC2 (11732394_at) / RFU HLA-DPB1 (11760878_x_at) / Fold change /veh HLA-DPB1 (11760878_x_at) / RFU SPINT1 (11716480_a_at) / Fold change /veh SPINT1 (11716480_a_at) / RFU GAP43 (11754022_s_at) / Fold change /veh GAP43 (11754022_s_at) / RFU A4GNT (11735810_at) / Fold change /veh A4GNT (11735810_at) / RFU PRB3 (11715151_x_at) / Fold change /veh PRB3 (11715151_x_at) / RFU TUBB4B (11761932_at) / Fold change /veh TUBB4B (11761932_at) / RFU CAPN14 (11732068_a_at) / Fold change /veh CAPN14 (11732068_a_at) / RFU TMCC2 (11721928_a_at) / Fold change /veh TMCC2 (11721928_a_at) / RFU IRGQ (11745062_a_at) / Fold change /veh IRGQ (11745062_a_at) / RFU FAM174B (11720279_a_at) / Fold change /veh FAM174B (11720279_a_at) / RFU TMPRSS4 (11748680_a_at) / Fold change /veh TMPRSS4 (11748680_a_at) / RFU FAM212B (11763350_a_at) / Fold change /veh FAM212B (11763350_a_at) / RFU PLEKHG5 (11743358_a_at) / Fold change /veh PLEKHG5 (11743358_a_at) / RFU ZSCAN30 (11745921_a_at) / Fold change /veh ZSCAN30 (11745921_a_at) / RFU CMKLR1 (11741424_a_at) / Fold change /veh CMKLR1 (11741424_a_at) / RFU LOC101060620 /// MAPK8IP1 (11723275_at) / Fold change /veh LOC101060620 /// MAPK8IP1 (11723275_at) / RFU SPTSSB (11747773_x_at) / Fold change /veh SPTSSB (11747773_x_at) / RFU PRSS12 (11739890_at) / Fold change /veh PRSS12 (11739890_at) / RFU BIN1 (11741810_x_at) / Fold change /veh BIN1 (11741810_x_at) / RFU WNT11 (11732464_a_at) / Fold change /veh WNT11 (11732464_a_at) / RFU C10orf10 (11716521_a_at) / Fold change /veh C10orf10 (11716521_a_at) / RFU C5orf56 (11738089_at) / Fold change /veh C5orf56 (11738089_at) / RFU CYB561 (11721691_x_at) / Fold change /veh CYB561 (11721691_x_at) / RFU ANKRD19P (11752326_a_at) / Fold change /veh ANKRD19P (11752326_a_at) / RFU OR2T12 /// OR2T33 /// OR2T8 (11738714_s_at) / Fold change /veh OR2T12 /// OR2T33 /// OR2T8 (11738714_s_at) / RFU VCAN (11748164_a_at) / Fold change /veh VCAN (11748164_a_at) / RFU JSRP1 (11732532_at) / Fold change /veh JSRP1 (11732532_at) / RFU KRTAP10-11 (11738290_x_at) / Fold change /veh KRTAP10-11 (11738290_x_at) / RFU MYO3A (11730013_a_at) / Fold change /veh MYO3A (11730013_a_at) / RFU EBF3 (11725865_a_at) / Fold change /veh EBF3 (11725865_a_at) / RFU CAMK2N1 (11719241_x_at) / Fold change /veh CAMK2N1 (11719241_x_at) / RFU C5orf56 (11738088_a_at) / Fold change /veh C5orf56 (11738088_a_at) / RFU OLFML3 (11715873_a_at) / Fold change /veh OLFML3 (11715873_a_at) / RFU LOC100653217 /// NTM (11731650_a_at) / Fold change /veh LOC100653217 /// NTM (11731650_a_at) / RFU MAPK11 (11762145_a_at) / Fold change /veh MAPK11 (11762145_a_at) / RFU FIZ1 (11724087_x_at) / Fold change /veh FIZ1 (11724087_x_at) / RFU OASL (11726364_x_at) / Fold change /veh OASL (11726364_x_at) / RFU SOX15 (11748057_x_at) / Fold change /veh SOX15 (11748057_x_at) / RFU CD79A (11719716_a_at) / Fold change /veh CD79A (11719716_a_at) / RFU HIST1H1D (11736915_at) / Fold change /veh HIST1H1D (11736915_at) / RFU CASKIN2 (11723855_a_at) / Fold change /veh CASKIN2 (11723855_a_at) / RFU LOC730098 (11760151_x_at) / Fold change /veh LOC730098 (11760151_x_at) / RFU OR4N2 (11742367_at) / Fold change /veh OR4N2 (11742367_at) / RFU PRRT2 (11749266_a_at) / Fold change /veh PRRT2 (11749266_a_at) / RFU SNX32 (11753110_a_at) / Fold change /veh SNX32 (11753110_a_at) / RFU CDHR5 (11726645_a_at) / Fold change /veh CDHR5 (11726645_a_at) / RFU RCAN1 (11760418_a_at) / Fold change /veh RCAN1 (11760418_a_at) / RFU FAM167A (11723789_a_at) / Fold change /veh FAM167A (11723789_a_at) / RFU FAM26E (11764081_at) / Fold change /veh FAM26E (11764081_at) / RFU ISYNA1 (11749810_s_at) / Fold change /veh ISYNA1 (11749810_s_at) / RFU ACY1 (11761880_at) / Fold change /veh ACY1 (11761880_at) / RFU 11764098_at / Fold change /veh 11764098_at / RFU SAMD14 (11745864_x_at) / Fold change /veh SAMD14 (11745864_x_at) / RFU NPB (11741838_a_at) / Fold change /veh NPB (11741838_a_at) / RFU TMPRSS6 (11731388_a_at) / Fold change /veh TMPRSS6 (11731388_a_at) / RFU KRTAP10-2 (11738614_at) / Fold change /veh KRTAP10-2 (11738614_at) / RFU ARHGAP8 /// PRR5-ARHGAP8 (11727945_x_at) / Fold change /veh ARHGAP8 /// PRR5-ARHGAP8 (11727945_x_at) / RFU KRTAP5-7 /// NADSYN1 (11734609_at) / Fold change /veh KRTAP5-7 /// NADSYN1 (11734609_at) / RFU RASL12 (11751679_a_at) / Fold change /veh RASL12 (11751679_a_at) / RFU CDKN2B (11736163_a_at) / Fold change /veh CDKN2B (11736163_a_at) / RFU PRF1 (11729649_at) / Fold change /veh PRF1 (11729649_at) / RFU, ZNF638 /// ZNF638-IT1 / Fold change vs veh, ZNF638 /// ZNF638-IT1 / RFU, PANK3 / Fold change vs veh, PANK3 / RFU, SH3YL1 / Fold change vs veh, SH3YL1 / RFU, ZEB2 / Fold change vs veh, ZEB2 / RFU, NRIP1 / Fold change vs veh, NRIP1 / RFU, PTTG1IP / Fold change vs veh, PTTG1IP / RFU, CAPN2 / Fold change vs veh, CAPN2 / RFU, MED14 / Fold change vs veh, MED14 / RFU, SNORA58 / Fold change vs veh, SNORA58 / RFU, C1orf63 / Fold change vs veh, C1orf63 / RFU, LRRFIP1 / Fold change vs veh, LRRFIP1 / RFU, NDUFAF7 / Fold change vs veh, NDUFAF7 / RFU, SLC12A2 / Fold change vs veh, SLC12A2 / RFU, IBTK / Fold change vs veh, IBTK / RFU, ESF1 / Fold change vs veh, ESF1 / Fold change vs veh, TMEM50B / RFU, TAOK1 / Fold change vs veh, TAOK1 / RFU, ACBD3 / Fold change vs veh, ACBD3 / RFU, TMA16 / Fold change vs veh, TMA16 / RFU, RWDD3 / Fold change vs veh, RWDD3 / RFU, BCAT1 / Fold change vs veh, BCAT1 / RFU, EDEM3 / Fold change vs veh, EDEM3 / RFU, TMEM33 / Fold change vs veh, TMEM33 / RFU, WDR75 / Fold change vs veh, WDR75 / RFU, AHCTF1 / Fold change vs veh, AHCTF1 / RFU, TFRC / Fold change vs veh, TFRC / RFU, ZDHHC17 / Fold change vs veh, ZDHHC17 / RFU, NOM1 / Fold change vs veh, NOM1 / RFU, ARL8B / Fold change vs veh, ARL8B / RFU, ZBTB11 / Fold change vs veh, ZBTB11 / RFU, TAMM41 / Fold change vs veh, TAMM41 / RFU, KIAA1704 /// LOC100996395 / Fold change vs veh, KIAA1704 /// LOC100996395 / RFU, ING1 / Fold change vs veh, ING1 / RFU, TRMT61B / Fold change vs veh, TRMT61B / RFU, FUBP3 / Fold change vs veh, FUBP3 / RFU, TP53 / Fold change vs veh, TP53 / RFU, TNKS2 / Fold change vs veh, TNKS2 / RFU, ZFP14 / Fold change vs veh, ZFP14 / RFU, ACTR2 / Fold change vs veh, ACTR2 / RFU, PPP3R1 / Fold change vs veh, PPP3R1 / RFU, PIK3R1 / Fold change vs veh, PIK3R1 / RFU, HNRNPA1 / Fold change vs veh, HNRNPA1 / RFU, RNF170 / Fold change vs veh, RNF170 / RFU, ZNF28 / Fold change vs veh, ZNF28 / RFU, RNGTT / Fold change vs veh, RNGTT / RFU, OGT / Fold change vs veh, OGT / RFU, BRD1 / Fold change vs veh, BRD1 / RFU, MARS / Fold change vs veh, MARS / RFU, ZNF655 / Fold change vs veh, ZNF655 / RFU, FAHD1 / Fold change vs veh, FAHD1 / RFU, BDP1 / Fold change vs veh, BDP1 / RFU, LRRCC1 / Fold change vs veh, LRRCC1 / RFU, ARID1A / Fold change vs veh, ARID1A / RFU, ZNF146 / Fold change vs veh, ZNF146 / RFU, ZNF330 / Fold change vs veh, ZNF330 / RFU, GPN3 / Fold change vs veh, GPN3 / RFU, C9orf123 / Fold change vs veh, C9orf123 / RFU, N4BP2L2 / Fold change vs veh, N4BP2L2 / RFU, ARFIP1 / Fold change vs veh, ARFIP1 / RFU, FAM179B / Fold change vs veh, FAM179B / RFU, BCL10 / Fold change vs veh, BCL10 / RFU, UHRF1BP1L / Fold change vs veh, UHRF1BP1L / RFU, BET1 / Fold change vs veh, BET1 / RFU, CNOT2 / Fold change vs veh, CNOT2 / RFU, ZNF268 / Fold change vs veh, ZNF268 / Fold change vs veh, ZNF507 / RFU, DGCR2 / Fold change vs veh, DGCR2 / RFU, WDSUB1 / Fold change vs veh, WDSUB1 / Fold change vs veh, HSP90B1 /// MIR3652 / RFU, ADSS / Fold change vs veh, ADSS / RFU, GK / Fold change vs veh, GK / RFU, ZNF148 / Fold change vs veh, ZNF148 / RFU, TAF9 / Fold change vs veh, TAF9 / RFU, SLC1A5 / Fold change vs veh, SLC1A5 / RFU, SLMO2 / Fold change vs veh, SLMO2 / RFU, ABCC4 / Fold change vs veh, ABCC4 / RFU, LOC101060439 /// RAP1B / Fold change vs veh, LOC101060439 /// RAP1B / RFU, RFX7 / Fold change vs veh, RFX7 / RFU, GTPBP10 / Fold change vs veh, GTPBP10 / RFU, CNEP1R1 / Fold change vs veh, CNEP1R1 / RFU, BIVM-ERCC5 /// ERCC5 / Fold change vs veh, BIVM-ERCC5 /// ERCC5 / RFU, ILF3 / Fold change vs veh, ILF3 / RFU 11762660_at / Fold change /veh 11762660_at / RFU VCAN (11757783_s_at) / Fold change /veh VCAN (11757783_s_at) / RFU DDX43 (11728927_at) / Fold change /veh DDX43 (11728927_at) / RFU KRT8 (11758188_x_at) / Fold change /veh KRT8 (11758188_x_at) / RFU NKD1 (11759106_at) / Fold change /veh NKD1 (11759106_at) / RFU SRD5A1 (11742802_a_at) / Fold change /veh SRD5A1 (11742802_a_at) / RFU TPSAB1 /// TPSB2 (11721975_s_at) / Fold change /veh TPSAB1 /// TPSB2 (11721975_s_at) / RFU GSTM3 (11746129_a_at) / Fold change /veh GSTM3 (11746129_a_at) / RFU IL23R (11737362_x_at) / Fold change /veh IL23R (11737362_x_at) / RFU TMEM51 (11727254_a_at) / Fold change /veh TMEM51 (11727254_a_at) / RFU PIWIL2 (11732686_x_at) / Fold change /veh PIWIL2 (11732686_x_at) / RFU ORM1 (11744905_x_at) / Fold change /veh ORM1 (11744905_x_at) / RFU CCDC152 (11743942_at) / Fold change /veh CCDC152 (11743942_at) / RFU ECM1 (11717891_a_at) / Fold change /veh ECM1 (11717891_a_at) / RFU IL23R (11748794_a_at) / Fold change /veh IL23R (11748794_a_at) / RFU TNFAIP8L3 (11732012_x_at) / Fold change /veh TNFAIP8L3 (11732012_x_at) / RFU MBOAT4 (11741988_at) / Fold change /veh MBOAT4 (11741988_at) / RFU 11764193_at / Fold change /veh 11764193_at / RFU TMEM53 (11763286_at) / Fold change /veh TMEM53 (11763286_at) / RFU MAGEB2 (11727129_at) / Fold change /veh MAGEB2 (11727129_at) / RFU TMEM200A (11744735_a_at) / Fold change /veh TMEM200A (11744735_a_at) / RFU CCDC152 (11751479_a_at) / Fold change /veh CCDC152 (11751479_a_at) / RFU FAM211A (11726209_a_at) / Fold change /veh FAM211A (11726209_a_at) / RFU RGS16 (11746705_a_at) / Fold change /veh RGS16 (11746705_a_at) / RFU VCAN (11755009_s_at) / Fold change /veh VCAN (11755009_s_at) / RFU RHOB (11743442_s_at) / Fold change /veh RHOB (11743442_s_at) / RFU RGS16 (11720943_a_at) / Fold change /veh RGS16 (11720943_a_at) / RFU RGS16 (11720944_at) / Fold change /veh RGS16 (11720944_at) / RFU, VPS4B / Fold change vs veh, VPS4B / RFU, CREB1 / Fold change vs veh, CREB1 / RFU, DNAJC13 / Fold change vs veh, DNAJC13 / RFU, GNAQ / Fold change vs veh, GNAQ / RFU, CDK5R1 / Fold change vs veh, CDK5R1 / RFU, ZRANB3 / Fold change vs veh, ZRANB3 / RFU, CUL4A / Fold change vs veh, CUL4A / RFU, CCNY / Fold change vs veh, CCNY / RFU, UFL1 / Fold change vs veh, UFL1 / RFU, COG3 / Fold change vs veh, COG3 / RFU, DIAPH2 / Fold change vs veh, DIAPH2 / RFU, SKA2 / Fold change vs veh, SKA2 / RFU, AFF3 / Fold change vs veh, AFF3 / RFU, LMF1 / Fold change vs veh, LMF1 / RFU, IPO11 / Fold change vs veh, IPO11 / RFU, DFFB / Fold change vs veh, DFFB / RFU, FOXP1 / Fold change vs veh, FOXP1 / RFU, CARD8 / Fold change vs veh, CARD8 / RFU, STRN3 / Fold change vs veh, STRN3 / RFU, ADK / Fold change vs veh, ADK / RFU, RASSF2 / Fold change vs veh, RASSF2 / RFU, WIPF1 / Fold change vs veh, WIPF1 / RFU, LARP1B / Fold change vs veh, LARP1B / RFU, RASA1 / Fold change vs veh, RASA1 / RFU, RB1 / Fold change vs veh, RB1 / RFU, PPFIA1 / Fold change vs veh, PPFIA1 / RFU, MAT2A / Fold change vs veh, MAT2A / RFU, CCT5 / Fold change vs veh, CCT5 / RFU, WDR92 / Fold change vs veh, WDR92 / RFU, CUX1 / Fold change vs veh, CUX1 / RFU, TTC7A / Fold change vs veh, TTC7A / RFU, TMEM135 / Fold change vs veh, TMEM135 / RFU, DEPTOR / Fold change vs veh, DEPTOR / RFU, CPM / Fold change vs veh, CPM / RFU, DNAJB6 / Fold change vs veh, DNAJB6 / RFU, CACNA2D3 / Fold change vs veh, CACNA2D3 / RFU, DTX4 / Fold change vs veh, DTX4 / RFU, TFCP2 / Fold change vs veh, TFCP2 / RFU, GMCL1 /// GMCL1P1 / Fold change vs veh, GMCL1 /// GMCL1P1 / RFU, AEBP2 / Fold change vs veh, AEBP2 / RFU, SNHG1 /// SNORD22 /// SNORD25 /// SNORD26 /// SNORD27 /// SNORD28 /// SNORD29 /// SNORD31 / Fold change vs veh, SNHG1 /// SNORD22 /// SNORD25 /// SNORD26 /// SNORD27 /// SNORD28 /// SNORD29 /// SNORD31 / Fold change (Aza/veh), C12orf56 (ProbeSet 11735607_a_at) / Fold change (ACY-1035/veh), C12orf56 (ProbeSet 11735607_a_at) / Fold change (Aza/veh), FGFR1OP (ProbeSet 11751329_s_at) / Fold change (ACY-1035/veh), FGFR1OP (ProbeSet 11751329_s_at) / Fold change (Aza/veh), VPS36 (ProbeSet 11739960_a_at) / Fold change (ACY-1035/veh), VPS36 (ProbeSet 11739960_a_at) / RFU SYPL1 (11715823_x_at) / Fold change /veh SYPL1 (11715823_x_at) / RFU IGFBP7 (11715501_s_at) / Fold change /veh IGFBP7 (11715501_s_at) / RFU REEP3 (11722064_at) / Fold change /veh REEP3 (11722064_at) / RFU IGLL1 (11728026_x_at) / Fold change /veh IGLL1 (11728026_x_at): dose or concentration left out as unconfirmed
Details: ProbeSet 11748335_a_at; LIST B

Nc1ccc(-c2cccs2)cc1NC(=O)c1ccc2c(c1)cc(C1CC1)n2CCN1CCOCC1 [ACY-1035]
Fold change vs veh, SLMO2: 0.88
